According to patent publication US12391680B2, “Compounds and compositions for the treatment of cystic fibrosis” (FONDAZIONE ISTITUTO ITALIANO DI TECNOLOGIA, priority 2019, dated 2025):

Biological target: mutant CFTR (Homo sapiens, UniProt P13569)
Assay: Fluorescence assay for CFTR activity (halide-sensitive YFP, HS-YFP)
Type: cell-based
Conditions: CFBE41o- and FRT cells with stable expression of mutant CFTR
Experimental: Mutant CFTR activity was determined with the functional assay based on the halide-sensitive yellow fluorescent protein, HS—YFP (Galietta et al., FEBS Lett 499:220-224, 2001). CFBE41o- and FRT cells with stable expression of mutant CFTR and HS—YFP were plated on clear-bottom 96-well black microplates (Code 3603, Corning Life Sciences) at a density of 50,000 cells/well and kept at 37° C. in 5% CO2 for 24 hours.
For the corrector assay, cells were treated for further 24 hours with test compounds, vehicle (DMSO), or the positive control VX-809. After treatment, the culture medium was removed and cells in each well were stimulated for 30 min at 37° C. with 60 μL PBS (containing 137 mM NaCl, 2.7 mM KCl, 8.1 mM Na2HPO4, 1.5 mM KH2PO4, 1 mM CaCl2, and 0.5 mM MgCl2) plus forskolin (20 μM) and genistein (50 μM).
For determination of potentiator activity on F508del-CFTR, cells were incubated for 24 hours at 27° C. to allow trafficking of the mutant protein to plasma membrane. Cells were then stimulated with for 30 min with PBS containing forskolin (20 μM) plus the compound to be tested at the desired concentration. For determination of potentiator activity on G551D-CFTR or G1349D-CFTR, cells were directly stimulated with forskolin plus test compound without previous incubation at low temperature. At the time of assay, microplates carrying CFBE41o- or FRT cells were transferred to microplate readers (BMG Labtech) equipped with high-quality excitation (HQ500/20×: 500±10 nm) and emission (HQ535/30M: 535±15 nm) filters for YFP (Chroma Technology). The assay consisted of a continuous 14 s fluorescence reading with 2 s before and 12 s after injection of an iodide-containing solution (165 μL of a modified PBS containing I^− instead of Cl^−; final I^− concentration in the well: 100 mM). Data were normalized to the initial background-subtracted fluorescence. Enhanced CFTR activity, induced by correctors and/or potentiators, results in accelerated I^− influx that in turn causes faster HS—YFP quenching (Pedemonte et al., Mol Pharmacol 68:1736-1746, 2005; Pedemonte et al., J Clin Invest 115:2564-2571, […]). To determine fluorescence quenching rate associated with I^− influx, the final 10 s of data for each well were fitted with an exponential function to extrapolate initial slope (dF/dt).
EC50 obtained are illustrated in Table 1 wherein+: EC50>2 μM; ++: 1.0 μM <EC50<2 μM; +++: EC50<1 μM.

Chain of mutant CFTR (P13569 with tags, fused parts or gaps DEL508-508): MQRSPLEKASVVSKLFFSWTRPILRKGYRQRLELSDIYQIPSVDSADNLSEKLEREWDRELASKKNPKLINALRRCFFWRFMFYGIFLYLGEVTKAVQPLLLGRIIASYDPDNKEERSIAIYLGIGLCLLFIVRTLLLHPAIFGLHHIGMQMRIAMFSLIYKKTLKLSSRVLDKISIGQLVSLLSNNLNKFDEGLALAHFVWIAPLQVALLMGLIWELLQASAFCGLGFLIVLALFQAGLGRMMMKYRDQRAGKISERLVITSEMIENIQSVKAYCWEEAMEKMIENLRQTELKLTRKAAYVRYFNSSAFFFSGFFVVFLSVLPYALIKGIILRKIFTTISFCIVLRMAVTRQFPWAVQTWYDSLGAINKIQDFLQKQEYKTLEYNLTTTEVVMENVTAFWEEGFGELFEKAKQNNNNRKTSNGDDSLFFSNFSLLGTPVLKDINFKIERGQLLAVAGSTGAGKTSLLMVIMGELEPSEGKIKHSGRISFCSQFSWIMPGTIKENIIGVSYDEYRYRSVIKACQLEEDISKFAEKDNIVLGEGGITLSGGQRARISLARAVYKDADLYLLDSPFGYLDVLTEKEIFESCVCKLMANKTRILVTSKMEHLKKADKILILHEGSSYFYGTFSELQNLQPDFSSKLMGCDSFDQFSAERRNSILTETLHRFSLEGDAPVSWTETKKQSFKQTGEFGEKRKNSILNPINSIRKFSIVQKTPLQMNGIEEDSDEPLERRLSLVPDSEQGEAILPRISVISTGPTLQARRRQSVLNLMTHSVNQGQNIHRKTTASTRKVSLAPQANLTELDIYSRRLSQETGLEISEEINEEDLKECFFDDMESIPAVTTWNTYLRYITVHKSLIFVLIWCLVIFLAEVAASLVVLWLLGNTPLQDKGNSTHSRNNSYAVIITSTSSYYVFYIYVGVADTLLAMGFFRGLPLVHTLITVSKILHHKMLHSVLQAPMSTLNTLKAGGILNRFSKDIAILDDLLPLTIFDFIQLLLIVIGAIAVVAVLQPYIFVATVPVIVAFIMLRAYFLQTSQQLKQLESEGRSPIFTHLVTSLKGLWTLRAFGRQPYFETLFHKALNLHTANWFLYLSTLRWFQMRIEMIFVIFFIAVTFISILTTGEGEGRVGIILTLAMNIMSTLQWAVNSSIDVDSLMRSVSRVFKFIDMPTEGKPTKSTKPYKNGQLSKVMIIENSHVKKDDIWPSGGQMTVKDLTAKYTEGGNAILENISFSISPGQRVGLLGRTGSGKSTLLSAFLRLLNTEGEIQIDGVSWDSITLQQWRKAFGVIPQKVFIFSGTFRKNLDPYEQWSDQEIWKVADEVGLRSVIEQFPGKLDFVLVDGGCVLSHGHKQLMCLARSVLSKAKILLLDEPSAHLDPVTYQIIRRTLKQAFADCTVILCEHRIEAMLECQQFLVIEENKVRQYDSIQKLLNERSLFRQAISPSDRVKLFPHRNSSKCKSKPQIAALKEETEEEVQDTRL

EC50 [µM] | Structure (SMILES)
> 2 | Cc1n[nH]c(C)c1S(=O)(=O)N1CCOC(c2c(C(=O)N(C)C)sc3ccccc23)C1 (centres unmarked) [compound 083, 3-{4-[(3,5-dimethyl-1H-pyrazol-4-yl)sulfonyl]-2-morpholinyl}-N,N-dimethyl-1-benzothiophene-2-carboxamide]
< 1 | NC(=O)c1sc2ccccc2c1C1CN(S(=O)(=O)c2ccc(-c3ccccc3)cc2)CCO1 (racemic) [compound 051, rac-3-[4-(4-phenylphenyl)sulfonylmorpholin-2-yl]benzothiophene-2-carboxamide]
> 2 | Cc1c(S(=O)(=O)N2CCOC(c3c(C(=O)N(C)C)sc4ccccc34)C2)cnn1C (centres unmarked) [compound 079, 3-{4-[(1,5-dimethyl-1H-pyrazol-4-yl)sulfonyl]-2-morpholinyl}-N,N-dimethyl-1-benzothiophene-2-carboxamide]
> 2 | COc1ccc(S(=O)(=O)N2CCOC(c3c(C(N)=O)sc4ccccc34)C2)cc1OC (racemic) [compound 054, rac-3-[4-(3,4-dimethoxyphenyl)sulfonylmorpholin-2-yl]benzothiophene-2-carboxamide]
< 1 | NC(=O)c1sc2ccccc2c1C1CN(S(=O)(=O)c2ccc(C(F)(F)F)c(F)c2)CCO1 (single isomer, unassigned) [compound 056]
< 1 | CN1CCOc2cc(S(=O)(=O)N3CCOC(c4c(C(N)=O)sc5ccccc45)C3)ccc21 (racemic) [compound 057, rac-3-[4-[(4-methyl-2,3-dihydro-1,4-benzoxazin-7-yl)sulfonyl]morpholin-2-yl]benzothiophene-2-carboxamide]
> 2 | NC(=O)c1sc2ccccc2c1C1CN(S(=O)(=O)c2ccccc2C(F)(F)F)CCO1 (racemic) [compound 066, rac-3-[4-[2-(trifluoromethyl)phenyl]sulfonylmorpholin-2-yl]benzothiophene-2-carboxamide]
< 1 | CC(C)Oc1ccc(S(=O)(=O)N2CCOC(c3c(C(N)=O)sc4ccccc34)C2)cc1 (racemic) [compound 069, rac-3-[4-(4-isopropoxyphenyl)sulfonylmorpholin-2-yl]benzothiophene-2-carboxamide]
> 2 | NC(=O)c1sc2ccccc2c1[C@H]1CN(S(=O)(=O)c2ccc(C(F)(F)F)c(F)c2)CCO1 (single isomer, unassigned) [compound 055]
> 2 | COc1ccc(S(=O)(=O)N2CCOC(c3c(C(N)=O)sc4ccccc34)C2)cc1F (racemic) [compound 053, rac-3-[4-(3-fluoro-4-methoxy-phenyl)sulfonylmorpholin-2-yl]benzothiophene-2-carboxamide]
> 2 | CN(C)C(=O)c1sc2ccccc2c1C1CN(S(=O)(=O)C2CCCC2)CCO1 (centres unmarked) [compound 078, 3-[4-(cyclopentylsulfonyl)-2-morpholinyl]-N,N-dimethyl-1-benzothiophene-2-carboxamide]
1 to 2 | NC(=O)c1sc2ccccc2c1C1CN(S(=O)(=O)c2ccc(S(F)(F)(F)(F)F)cc2)CCO1 (racemic) [compound 060, rac-3-[4-[4-(pentafluoro-lambda6-sulfanyl)phenyl]sulfonylmorpholin-2-yl]benzothiophene-2-carboxamide]
> 2 | CCCCS(=O)(=O)N1CCOC(c2c(C(N)=O)sc3ccccc23)C1 (racemic) [compound 061, rac-3-[4-butylsulfonylmorpholin-2-yl]benzothiophene-2-carboxamide]
> 2 | COCCS(=O)(=O)N1CCOC(c2c(C(N)=O)sc3ccccc23)C1 (racemic) [compound 059, rac-3-[4-(2-methoxyethylsulfonyl)morpholin-2-yl]benzothiophene-2-carboxamide]
> 2 | CC(C)NC(=O)c1sc2ccccc2c1C1CN(S(=O)(=O)c2cnn(C)c2)CCO1 (centres unmarked) [compound 076, 3-[4-(1-methyl-1H-pyrazole-4-sulfonyl)-morpholin-2-yl]-benzo[b]thiophene-2-carboxylic acid isopropylamide]

More lines, now with the values behind:

Structure (SMILES) | EC50 [µM]
NC(=O)c1sc2ccccc2c1C1CN(S(=O)(=O)c2ccc(F)c(F)c2)CCO1 (racemic) [compound 021, rac-3-[4-(3,4-difluorophenyl)sulfonylmorpholin-2-yl]benzothiophene-2-carboxamide] | > 2
NC(=O)c1sc2ccccc2c1C1CN(S(=O)(=O)c2c[nH]cn2)CCO1 (racemic) [compound 004, rac-3-[4-(1H-imidazol-4-ylsulfonyl)morpholin-2-yl]benzothiophene-2-carboxamide] | > 2
CNC(=O)c1sc2ccccc2c1C1CN(S(=O)(=O)c2ccc(F)c(C)c2)CCO1 (racemic) [compound 028, rac-3-[4-(4-fluoro-3-methyl-phenyl)sulfonylmorpholin-2-yl]-N-methyl-benzothiophene-2-carboxamide] | > 2
NC(=O)c1sc2ccccc2c1C1CN(S(=O)(=O)C2CCCCC2)CCO1 (racemic) [compound 016, rac-3-[4-cyclohexylsulfonylmorpholin-2-yl]benzothiophene-2-carboxamide] | > 2
COc1ccc(S(=O)(=O)N2CCOC(c3c(C(N)=O)sc4ccccc34)C2)cc1 (racemic) [compound 010, rac-3-[4-(4-methoxyphenyl)sulfonylmorpholin-2-yl]benzothiophene-2-carboxamide] | 1 to 2
Cc1noc(C)c1S(=O)(=O)N1CCOC(c2c(C(N)=O)sc3ccccc23)C1 (racemic) [compound 008, rac-3-[4-(3,5-dimethylisoxazol-4-yl)sulfonylmorpholin-2-yl]benzothiophene-2-carboxamide] | > 2
NC(=O)c1sc2ccccc2c1C1CN(S(=O)(=O)c2cccc(OC(F)(F)F)c2)CCO1 (racemic) [compound 049, rac-3-[4-[3-(trifluoromethoxy)phenyl]sulfonylmorpholin-2-yl]benzothiophene-2-carboxamide] | > 2
CCNC(=O)c1sc2ccccc2c1C1CN(S(=O)(=O)c2ccc(F)c(C)c2)CCO1 (racemic) [compound 030, rac-N-ethyl-3-[4-(4-fluoro-3-methyl-phenyl)sulfonylmorpholin-2-yl]benzothiophene-2-carboxamide] | > 2
NC(=O)c1sc2ccccc2c1C1CN(S(=O)(=O)c2cccc(F)c2)CCO1 (racemic) [compound 020, rac-3-[4-(3-fluorophenyl)sulfonylmorpholin-2-yl]benzothiophene-2-carboxamide] | 1 to 2
COC(=O)c1cccc(S(=O)(=O)N2CCOC(c3c(C(N)=O)sc4ccccc34)C2)c1 (racemic) [compound 007, rac-methyl 3-[2-(2-carbamoylbenzothiophen-3-yl)morpholin-4-yl]sulfonylbenzoate] | > 2
Cc1cccc(S(=O)(=O)N2CCOC(c3c(C(N)=O)sc4ccccc34)C2)c1 (racemic) [compound 012, rac-3-[4-(m-tolylsulfonyl)morpholin-2-yl]benzothiophene-2-carboxamide] | 1 to 2
Cc1nc(S(=O)(=O)N2CCOC(c3c(C(N)=O)sc4ccccc34)C2)cn1C (racemic) [compound 002, rac-3-[4-(1,2-dimethylimidazol-4-yl)sulfonylmorpholin-2-yl]benzothiophene-2-carboxamide] | > 2
COc1ccc(S(=O)(=O)N2CCOC(c3c(C(N)=O)sc4ccccc34)C2)cc1C(F)(F)F (racemic) [compound 046, rac-3-[4-[4-methoxy-3-(trifluoromethyl)phenyl]sulfonylmorpholin-2-yl]benzothiophene-2-carboxamide] | < 1
NC(=O)c1sc2ccccc2c1C1CN(S(=O)(=O)c2ccc(Oc3ccccc3)cc2)CCO1 (racemic) [compound 006, rac-3-[4-(4-phenoxyphenyl)sulfonylmorpholin-2-yl]benzothiophene-2-carboxamide] | < 1
Cc1cc(S(=O)(=O)N2CCO[C@@H](c3c(C(N)=O)sc4ccccc34)C2)ccc1F (single isomer, unassigned) [compound 014] | > 2
NC(=O)c1sc2ccccc2c1C1CN(S(=O)(=O)c2cccc(Br)c2)CCO1 (racemic) [compound 009, rac-3-[4-(3-bromophenyl)sulfonylmorpholin-2-yl]benzothiophene-2-carboxamide] | > 2
COc1ccc(S(=O)(=O)N2CCOC(c3c(C(N)=O)sc4ccccc34)C2)cc1[N+](=O)[O-] (racemic) [compound 047, rac-3-[4-(4-methoxy-3-nitro-phenyl)sulfonylmorpholin-2-yl]benzothiophene-2-carboxamide] | > 2
